Data as given in article PMC4373826, “Antiviral Effect of Methylated Flavonol Isorhamnetin against Influenza” (PLoS ONE, 2015).

What was measured:
[1] = test system: influenza A/PR/8/34 (H1N1); test: microbe, parasite or virus in culture; conditions: MDCK
[2] = test system: influenza A/PR/8/34 (H1N1); test: in vitro; conditions: dog, SI (selective index, CC50/EC50), Post-treatment
[3] = Cytotoxicity assay (EZ-Cytox) in MDCK cells; type: cell-based, canine; conditions: dog; MDCK cells, 48 hr
Experimental: (§1) To determine the 50% cytotoxic concentration (CC50) for each of the tested flavonoid compounds, MDCK cells were seeded onto 96-well plates (NUNC, Penfield, NY, USA) at a density of 1 × 10^4 cells per well and incubated overnight for 80% confluence. MDCK cells were washed twice with PBS and the culture medium was replaced with medium containing serially diluted flavonoids (concentrations from 10μM up to 300 μM) for 48 hr at 37°C in a 5% CO2atmosphere. After the incubation period, the flavonoid-containing media was replaced with new media containing 10% EZ-Cytox (Daeil Lab Service, Seoul, South Korea), and the cells were incubated in the dark for 3 hr at 37°C in a 5% CO2 atmosphere. The optical density was measured at 480 nm using an x-Mark spectrophotometer (Bio-Rad, Hercules, CA, USA). Cytotoxicity was estimated by comparing the cell survival rate of the flavonoids-treated cells and the DMSO-treated cells with the control (virus-untreated) cells. The control cell values were arbitrarily set as the 100% survival rate. The treated cells values were normalized to the control cell values. The calculation of CC50 was carried out as described in detail in S1 Text.
(§2) The 50% cytotoxic concentration (CC50) was calculated according to the following equation:
(§3) Cytotoxicity (%) = [100-(ODt/ODs)] x100
(§4) ODt: The optical density (OD) of cells treated with the tested flavonoids.
(§5) ODs: The OD of cells treated with the control solvent (0.2 % DMSO).
(§6) After obtaining the results, we calculated the concentration that induces 50% cell death using the following equation:
(§7) (X2 - X1) X (50-Y1) / (Y2 - Y1) + X1. Where, X1 represents the lower concentration used in this experiment, while X2 represents the higher concentration. Y1 represents the mean of the percentage of the viable cells at X1 concentration. On the other hand, Y2 represents the mean of the percentage of the viable cells at X2 concentration.”

MDCK cells = test: Cytotoxicity assay (EZ-Cytox) in MDCK cells; type: cell-based, canine; conditions: especially at 50μM and 100μM
Experimental: as §1, §2, §3, §4, §5, §6, §7

[4] = test system: influenza A/PR/8/34 (H1N1); type: cell-based, influenza A virus; conditions: post-treatment 48 hr
[5] = test system: influenza A/PR/8/34 (H1N1); conditions: post-treatment

| Compound | EC50 ([1]; 48 h, Post-treatment) [µM] | selectivity ratio [2] | CC50 at 48 h [3] [µM] | cell viability of MDCK cells (MDCK cells) | virus titer in HA assay (virus yield reduction) [4] | influenza virus-induced cell death [5] | EC50 ([1]; 0.5 h, Co-treatment (0.5 hr)) [µM] | EC50 ([1]; 1 h, Co-treatment (1 hr)) [µM] | EC50 ([1]; 2 h, Co-treatment (2 hr)) [µM] | EC50 ([1]; Pre-treatment (1 hr)) [µM] | EC50 ([1]; Pre-treatment (12 hr)) [µM] | EC50 ([1]; Pre-treatment (24 hr)) [µM] |
| --- | --- | --- | --- | --- | --- | --- | --- | --- | --- | --- | --- | --- |
| COc1ccc(-c2cc(=O)c3c(O)cc(O)cc3o2)cc1O [Diosmetin, diosmetin] | 124 |  |  |  |  |  |  |  |  |  |  |  |
| O=C1C[C@@H](c2ccc(O)c(O)c2)Oc2cc(O)cc(O)c21 [Eriodictyol, eriodictyol] | 115 | 2 | 256 | significant decrease |  |  |  |  |  |  |  |  |
| O=c1c(O)c(-c2ccc(O)c(O)c2)oc2cc(O)cc(O)c12 [Quercetin, quercetin] | 30 | > 9 | > 265 |  | significantly decreased | apparent suppression | 106 | 62 | 43 | 78 | 85 | 98 |
| O=c1c(O)c(-c2ccc(O)cc2)oc2cc(O)cc(O)c12 [Kaempferol, kaempferol] | 35 | 7 | 245 |  | significantly decreased | apparent suppression |  |  |  |  |  |  |
